{
  "source": "patent US9012482B2",
  "about": "“Drug containing benzophenone derivative or its salt” (Toyama Chemical Co., Ltd., priority 2007, dated 2015)",
  "format_in_all_cases": "in vivo, mouse (DBA/1 J)",
  "key": {"[1]": {"tested_on": "femora of mice with type II collagen-induced arthritis", "assay": "Osteoporosis in femur of mice with type II collagen-induced arthritis: bone density as CT value (μCT)", "experimental": "The induction of mouse type II collagen-induced arthritis and the preparation of T-5224-dosing solution (1 mg/mL) were carried out by the same procedure in Example 1. T-5224 at 10 mg/kg was orally administered once daily from 21 to 49 days after the first immunization. PVP solution was administered to the mice in Control group.\nThe femora isolated on the next day of final administration were fixed with formalin, and then scanned using μCT scanner system (MCT-100CB, Hitachi, Ltd.) (X-ray tube voltage: 90.0 kV, X-ray tube current: 100 iris: 3630, magnification: ×5, resolution: 30 μm). Bone density was evaluated as CT value using 3D CT image (“img” format) assembled by μCT scanner system and bone morphometry software (TRI-3D/BON, Ratoc System Engineering Co., Ltd.) according to the manufacturer's protocol. The evaluation site was set on a metaphyseal slice with 0.35 mm thickness at a point 3% of the length of the femur from the distal growth plate, according to the report of Jochems C. et al. [Arthritis Research and Therapy, 2005, Vol. 7, page R837-R843]."}, "RANKL mRNA": {"tested_on": "RANKL mRNA", "assay": "RANKL mRNA expression in hind paws of mice with type II collagen-induced arthritis (real-time PCR)", "experimental": "Male DBA/1 J mice at 8-week old (Charles River Laboratories Japan, Inc.) were used. Bovine type II collagen (KOKEN CO., LTD.) dissolved at 2 mg/mL in 0.1 mol/L acetic acid was mixed and emulsified with an equal volume of Freund's complete adjuvant (Difco Laboratories, Inc.), and then 0.2 mL of the emulsion was intradermally injected at the tail head of each mouse. The same treatment was carried out 21 days after the first immunization so that type II collagen-induced arthritis was induced in mice. T-5224 was dissolved in the 2-fold molar amount of sodium hydroxide solution, and then water and polyvinylpyrrolidone (PVP) at 3-fold weight of T-5224 were added to yield 3 mg/mL of T-5224-dosing solution. T-5224 at 30 mg/kg was orally administered once daily from 21 to 34 days after the first immunization. PVP solution was administered to the mice in Control group.\nOn the next day of final administration, the hind paws were collected. After the excision of claws and skin, they were immersed in RNA-stabilizing agent (RNAlater, Ambion, Inc.) and kept in a refrigerator overnight. Then RNA-stabilizing agent was wiped up, and the hind paws were cryopreserved and crushed by pressing under cooling with the liquid nitrogen. […]\n(§1) RT product (100 ng, equivalent amount to RNA) was mixed with 25 μL of quantitative PCR reagent (qPCR Mastermix, Eurogentec S.A.), 2.5 μL of probe/primer solution (TaqMan gene expression assays tumor necrosis factor (ligand) superfamily member 11 Mus musculus, Applied Biosystems) and RNase-free water (Takara Inc.) in total volume of 50 μL, and then PCR reaction (hold at 50° C. for 2 min, hold at 95° C. for 10 min, 40 cycles at 95° C. for 15 sec and at 60° C. for 1 min) was carried out using real-time PCR system (ABI PRISM 7700 sequence detection system, Applied Biosystems) to measure RANKL mRNA. […] The levels of RANKL mRNA and OPG mRNA were expressed as the normalized ratio to Hprt1 mRNA amount."}, "OPG mRNA": {"tested_on": "OPG mRNA", "assay": "OPG mRNA expression in hind paws of mice with type II collagen-induced arthritis (real-time PCR)", "details": "30 mg/kg orally once daily", "experimental": "Male DBA/1 J mice at 8-week old (Charles River Laboratories Japan, Inc.) were used. Bovine type II collagen (KOKEN CO., LTD.) dissolved at 2 mg/mL in 0.1 mol/L acetic acid was mixed and emulsified with an equal volume of Freund's complete adjuvant (Difco Laboratories, Inc.), and then 0.2 mL of the emulsion was intradermally injected at the tail head of each mouse. The same treatment was carried out 21 days after the first immunization so that type II collagen-induced arthritis was induced in mice. […]\nas §1"}},
  "data": [
    {"compound": "O=C(O)CCc1cc(C(=O)c2ccc(OC3CCCC3)cc2O)ccc1OCc1ccc2c(O)noc2c1", "note": "[T-5224]", "values": [
      {"measurement": "inhibition of the reduction of CT value", "setting": "[1]; 10 mg/kg orally once daily, days 21 to 49, femur", "result": 49, "unit": "%"},
      {"measurement": "CT Value (bone density)", "setting": "[1]; femur metaphyseal slice, 10 mg/kg orally once daily, days 21 to 49 after first immunization, Normal 761, Control 657", "result": 708},
      {"measurement": "effect on development of osteoporosis in femora (in words)", "setting": "[1]; non-arthritic region of mice with type II collagen-induced arthritis, 10 mg/kg orally", "result": "inhibited the development of osteoporosis in femora"},
      {"measurement": "inhibition of the increase of RANKL mRNA level", "setting": "RANKL mRNA; 30 mg/kg orally once daily, days 21 to 34, hind paws", "result": 84, "unit": "%"},
      {"measurement": "regulatory effect on expression of RANKL/OPG (in words)", "setting": "RANKL mRNA; hind paws of mice with type II collagen-induced arthritis, 30 mg/kg orally", "result": "controlling the expression of RANKL/OPG to normal level"},
      {"measurement": "RANKL mRNA level (normalized ratio to Hprt1 mRNA amount)", "setting": "RANKL mRNA; hind paws, collagen-induced arthritis mice, 30 mg/kg orally once daily, days 21 to 34 after first immunization, Normal 0.096, Control 0.927", "result": 0.224},
      {"measurement": "inhibition of the decrease of OPG mRNA level", "setting": "OPG mRNA; days 21 to 34", "result": 68, "unit": "%"},
      {"measurement": "OPG mRNA level (normalized ratio to Hprt1 mRNA amount)", "setting": "OPG mRNA; collagen-induced arthritis mice, days 21 to 34 after first immunization, Normal 0.375, Control 0.156", "result": 0.306}
    ]}
  ]
}
